According to patent US9096650B2, “Cyclic oligopeptides for binding to a target ligand” (LEXCICON LIMITED, priority 2006, dated 2015):

Tests used:
TNF secretion = details: in words; literature reference; cited from earlier work
[1] = tested on: J774-1 cells (a macrophage cell line); assay: Suppression of TNF secretion stimulated by LPS in a macrophage cell line, varying epitope order and stereochemistry of associating amino acids (Example 3); type: cell-based; details: peptide 50 ug/ml; LPS 1.25 ug/ml; LPS alone 1861.9
Protocol: • 1. Cyclic octapeptides were prepared with the following structures: cyclo(-DF-S-ΣL-R-DF-S-ΣL-R-) cyclo(-DF-S-ΣL-R-DF-S-ΣD-R-) cyclo(-DF-S-ΣD-R-DF-S-ΣD-R-) cyclo(-DF-R-ΣL-S-DF-R-ΣL-S-) cyclo(-DF-R-ΣL-S-DF-R-ΣD-S-) cyclo(-DF-R-ΣD-S-DF-R-ΣD-S-) wherein F, S and R are the epitope-forming amino acids, ΣL represents an associating amino acid which is an L-alpha aminocarboxylic acid in which the associating functional group is a side-chain residue consisting of an unbranched —C10H21; ΣD represents an associating amino acid which is a D-alpha aminocarboxylic acid in which the associating functional group is a side-chain residue consisting an unbranched —C10H21. These cyclic oligopeptides were prepared as solutions in distilled water at a concentration of 1 mg/ml. • 2. J774-1 cells (a macrophage cell line) were plated out in all the wells of a 24-well cluster plates at a seeding density of 3×10^5 cells/ml/well (1 ml RPMI 1640 culture medium per well), and incubated overnight at 37° C. in 5% CO2/air. • 3. The following day, the solutions from step 1 were administered to eighteen wells containing cells in step 2, to give three wells each with a final concentration of 50 ug/ml. The remaining wells were left untreated. The plate was incubated for a further four hours at 37 degC. • 4. Lipopolysaccharide (from E. coli strain 0111 B4) was added to the wells receiving the octapeptide solutions, as well as three of the wells receiving no peptide. The concentration of lipopolysaccharide was 1.25 ug/ml. • 5. The plate was incubated overnight, and the following day the supernatants were assayed for TNF using a commercial ELISA kit.

[2] = tested on: J774A.1 cells (a macrophage cell line); assay: Dose response: suppression of TNF secretion stimulated by lipopolysaccharide (LPS) in a macrophage cell line (Example 1); type: cell-based; details: LPS 0.625 ug/ml
Protocol: • 1. A cyclic octapeptide with the structure: cyclo(-DF-S-Σ-R-DF-S-Σ-R-) • was synthesised using standard methods based on the Merrifield resin-based technique, followed by solution-phase cyclisation. The purified peptide was prepared as a solution in distilled water at a concentration of 1 mg/ml. • R, F and S represent the epitope-forming amino acids and Σ represents the associating functional group borne on the associating amino acid wherein the associating amino acid is an L-alpha aminocarboxylic acid and the associating functional group is a side-chain residue consisting of a straight aliphatic chain containing ten carbon atoms. • All amino acids are in the L form unless indicated otherwise. • All amino acids are linked by peptide bonds. • 2. J774A.1 cells (a macrophage cell line) were plated out in all the wells of a 24-well cluster plates at a seeding density of 5×10^5 cells/ml/well (1 ml RPMI 1640 culture medium per well), and incubated overnight at 37° C. in 5% CO2/air. • 3. The following day, the solution from step 1 was administered to fifteen wells containing cells in step 2, to give three wells each with a final concentration of 50, 25, 12.5, 6.25 or 3.125 ug/ml. The remaining wells were left untreated. The plate was incubated for a further four hours at 37 degC. • 4. Lipopolysaccharide (from E. coli strain 0111 B4) was added to the wells receiving the octapeptide solution, as well as three of the wells receiving no peptide. The final concentration of lipopolysaccharide was 0.625 ug/ml. • 5. The plate was incubated overnight, and the following day the supernatants were assayed for TNF using a commercial ELISA kit.

[3] = tested on: J774A.1 cells (a macrophage cell line); assay: Suppression of LPS-stimulated TNF secretion by peptide formulated with hydroxypropyl beta-cyclodextrin (Example 4); type: cell-based
Protocol: • 1. A cyclic octapeptide with the structure cyclo(-DF-S-Σ-R-DF-S-Σ-R-) was prepared as a solution in transcutol at a concentration of 5 mg/ml, where Σ represents the associating amino acid as an L-alpha aminocarboxylic acid and the associating functional group borne on the associating amino acid as a side-chain residue consisting of a straight aliphatic chain containing ten carbon atoms. • 2. Six separate aliquots of 200 ul of the solution in step 1 were transferred to fresh 8 ml vials and mixed with slow vortexing with 800 ul of a solution of hydroxy-propyl beta cyclodextrin at a concentration 50, 25, 12.5, 6.25, 3.125 or 1.5625 mg/ml in distilled water • 2. J774A.1 cells (a macrophage cell line) were plated out in all the wells of a 24-well cluster plates at a seeding density of 5×10^5 cells/ml/well (1 ml RPMI 1640 culture medium per well), and incubated overnight at 37° C. in 5% CO2/air. • 3. The following day, each of the solutions from step 1 were administered in appropriate volumes to wells containing cells in step 2, to give three wells each with a final concentration of 8, 4, or 2 ug/ml. The remaining wells were left untreated. The plate was incubated for a further four hours at 37 degC. • 4. Lipopolysaccharide (from E. coli strain 0111 B4) was added to the wells receiving the octapeptide solution, as well as three of the wells receiving no peptide. The final concentration of lipopolysaccharide was 0.625 ug/ml. • 5. The plate was incubated overnight, and the following day the supernatants were assayed for TNF using a commercial ELISA kit.

TNF = assay: Suppression of TNF secretion stimulated by LPS in rats (Example 5); type: in vivo
Protocol: • 1. A cyclic octapeptide with the structure cyclo(-DF-S-Σ-R-DF-S-ΣR-), where Σ represents the associating amino acid as an L-alpha aminocarboxylic acid and the associating functional group borne on the associating amino acid as a side-chain residue consisting of a straight aliphatic chain containing ten carbon atoms, was prepared as a solution in transcutol and hydroxypropyl beta-cyclodextrin as described in example 4, where the concentration of peptide was 1 mg/ml, and the final concentration of cyclodextrin was 40 mg/ml. • 2. Rats weighing 250 g were injected i.p. with 1 ml of peptide solution (1 mg peptide per rat). A second group of rats received 1 ml of the transcutol/cyclodextrin vehicle containing no peptide. One hour later, the rats were further injected with 1 mg of lipopolysaccharide (from Salmonella abortus equi). • 3. 150 minutes later, blood samples were taken, and TNF levels measured in the two groups by ELISA.

In the case of Glatiramer acetate [Copaxone], the “TNF secretion in vitro” value (TNF secretion) is given as “down-regulate TNF secretion in vitro”.
For cyclo(-DF-S-Σ-R-DF-S-Σ-R-), the “Concentration of TNF” value [1] was 865.4 pg/mL, the TNF concentration ([2]; peptide 3.125 ug/ml, LPS alone 1780.09) was 1494.53 pg/mL and the TNF concentration ([2]; peptide 6.25 ug/ml) was 1346.20 pg/mL. The TNF concentration ([2]; peptide 12.5 ug/ml) was 1037.31 pg/mL, the TNF concentration ([2]; peptide 25.0 ug/ml) was 621.75 pg/mL and the TNF concentration ([2]; peptide 50.0 ug/ml) was 613.70 pg/mL. For the same substance, the “inhibition of TNF secretion” value ([3]; in words, down to 2 ug/ml in the well, cyclodextrin from 40:1 wt:wt downwards) was “significant inhibition”, the TNF concentration ([3]; peptide 2 ug/ml, cyclodextrin:peptide 1.25 by weight) was 2161.8 pg/mL and the TNF concentration ([3]; peptide 2 ug/ml, cyclodextrin:peptide 2.5 by weight) was 2314.2 pg/mL. It also gave a TNF concentration ([3]; peptide 2 ug/ml, cyclodextrin:peptide 5 by weight) of 2177.2 pg/mL, a TNF concentration ([3]; peptide 2 ug/ml, cyclodextrin:peptide 10 by weight) of 2278.3 pg/mL and a TNF concentration ([3]; peptide 2 ug/ml, cyclodextrin:peptide 20 by weight) of 2223.9 pg/mL. It also gave a TNF concentration ([3]; peptide 2 ug/ml, cyclodextrin:peptide 40 by weight, LPS 0.625 ug/ml, no peptide 2519.3) of 2450.2 pg/mL, a TNF concentration ([3]; peptide 4 ug/ml, cyclodextrin:peptide 1.25 by weight) of 1599.9 pg/mL and a TNF concentration ([3]; peptide 4 ug/ml, cyclodextrin:peptide 2.5 by weight) of 1538.7 pg/mL. For the same substance, the TNF concentration ([3]; peptide 4 ug/ml, cyclodextrin:peptide 5 by weight) was 1477.5 pg/mL, the TNF concentration ([3]; peptide 4 ug/ml, cyclodextrin:peptide 10 by weight) was 1474.8 pg/mL and the TNF concentration ([3]; peptide 4 ug/ml, cyclodextrin:peptide 20 by weight) was 1488.1 pg/mL. It also gave a TNF concentration ([3]; peptide 4 ug/ml, cyclodextrin:peptide 40 by weight) of 1646.5 pg/mL, a TNF concentration ([3]; peptide 8 ug/ml, cyclodextrin:peptide 1.25 by weight) of 1130.9 pg/mL and a TNF concentration ([3]; peptide 8 ug/ml, cyclodextrin:peptide 2.5 by weight) of 1105.7 pg/mL. For the same substance, the TNF concentration ([3]; peptide 8 ug/ml, cyclodextrin:peptide 5 by weight) was 1140.6 pg/mL, the TNF concentration ([3]; peptide 8 ug/ml, cyclodextrin:peptide 10 by weight) was 1218.7 pg/mL and the TNF concentration ([3]; peptide 8 ug/ml, cyclodextrin:peptide 20 by weight) was 1298.4 pg/mL. For the same substance, the TNF concentration ([3]; peptide 8 ug/ml, cyclodextrin:peptide 40 by weight) was 1276.9 pg/mL, the “TNF (blood)” value (TNF; 1 mg peptide i.p. in transcutol/cyclodextrin, 1 mg LPS one hour later, blood 150 minutes later, vehicle 10717) was 2370 pg/mL and the “reduction of TNF production versus vehicle” value (TNF; 1 mg peptide i.p., LPS stimulus) was “greater than 75%”.
